In patent publication US10975049B2, “Nicotinyl alcohol ether derivative, preparation method therefor, and pharmaceutical composition and uses thereof” (Institute of Materia Medica, Chinese Academy of Medical …, priority 2016, dated 2021):
pIC50, pKd: −log10 of the molar value.

What was measured:
[1] = target: T1, PD-L1 protein (Homo sapiens (Human), UniProt Q9NZQ7); experiment: Relieving the inhibition of IFNγ by ligand PD-L1 in human PBMC; format: cell-based; settings: 72 h
Protocol: The expression level of IFNγ can reflect the proliferative activity of T lymphocytes. Using the extracted human PBMC (peripheral blood mononuclear cell), on the basis that T lymphocyte could be activated by the anti-CD3/anti-CD28 antibody, the ligand PD-L1 was added to the inhibit T lymphocyte, the example compounds' capacity of relieving the inhibition by the PD-L1 was investigated.
The specific procedure is as follows. DAKEWE human lymphocyte separation solution (DKW-KLSH-0100) was used to extract PBMC from human whole blood, and PBMC was inoculated into 96 well plate, with 3×10^5 cells per well. […] After 72 h, the expression level of IFNγ in the supernatant was detected by Cisbio IFNγ test kit.

[2] = test system: high metastatic melanoma B16F10; experiment: Lung metastasis model of high metastatic melanoma B16F10; format: in vivo, C57BL/6 mice; settings: for Tumor number X ± SD: lung; for TGI % (tumor growth inhibition rate): tumor number
Protocol: The method in B16F10 lung metastasis model was as follows. The cultured B16F10 tumor cells were digested and centrifuged and washed for two times with sterile physiological saline and then counted. And the cell concentration was adjusted to 2.5×10^6/ml by physiological saline. 0.2 ml of cells were injected into the C57BL/6 mice through the tail vein, and the tumor cells will gather in the lung of the mice. After inoculation, the animals were randomly divided into two groups in next day. Each group had 6-7 mice. After weighing, the animals were dosed once each day. After 3 weeks, the mice were weighed and killed, the lung tissue was collected and weighed, and the number of lung tumors was counted after being fixed by the Bouin's Fluid. Finally, the tumor growth inhibition rate was calculated, and the tumor growth inhibition rate was used to evaluate the level of anti-tumor effect.
(§1) In the study of the mechanism of the above models, the method of flow cytometry was adopted in measuring the total cell proportion of T cells of various types. The specific steps were as follows. The samples were treated at first. For blood tissue, the orbital blood was taken. The red cell lysate was used to remove the red blood cells, and then the PBS buffer was used for wash. After being washed, the cells were collected. For the tumor and spleen, the tissues were grinded with a homogenizer, and then diluted with PBS buffer, then filtered by 300 meshes of screen. After the number of cells was counted for each sample, 1×10^6 cells were added into EP tube and stained for flow antibody. After incubation for 1 h on ice, each sample was washed 2 times with PBS buffer. The cell population was analyzed by VERSE flow instrument of BD Company. The total number of cells in tumor tissue was 1×10^5 and the total number of cells in blood and spleen tissues was 1×10^4. The ratio of T cells to total number of cells was analyzed after flow cytometry.

[3] = test system: mouse colon cancer MC38; experiment: Subcutaneous xenograft model of mouse colon cancer MC38; format: in vivo, C57BL/6 or Bablc mice
Protocol: (§2) The method in subcutaneous xenograft tumor was as follows. The cultured specific tumor cells were digested and collected by centrifugation, and washed with sterile physiological saline for two times and then counted. The cell concentration was adjusted to 5×10^6/ml by physiological saline, and 0.2 ml of cell suspension was inoculated to the right armpit of C57BL/6 or Bablc mice. After inoculation, the animals were randomly divided into two groups in next day. Each group had 6-7 mice. After weighing, the animals were dosed once each day to monitor tumor size. When the tumor size reached to a certain size, the mice was weighed and blood was collected from mice orbit and then the mice were killed by removing the neck. The tumor tissue, thymus tissue and spleen tissue were collected and weighed respectively. Finally, the tumor growth inhibition rate was calculated, and the tumor growth inhibition rate was used to evaluate the level of anti-tumor effect.

[4] = target: T1, PD-L1 protein; experiment: Interaction with PD-L1 protein tested by Biacore (SPR); format: binding
From the text: Surface plasmon is a kind of electromagnetic wave on the surface of metal, produced by the interaction of photon and electron in free vibration. Surface plasmon resonance (SPR) is an optical phenomenon that occurs on the surface of two kinds of media, which can be induced by photon or electron. The phenomenon of total reflection of light from light dense medium into light scattering medium will form evanescent wave into light scattering medium. When the total reflected evanescent wave meets the plasma wave on the metal surface, the resonance may occur, and the energy of reflected light decreases and the resonance peak appears on the reflected light energy spectrum. This resonance is called the surface plasmon resonance. The incident angle of the surface plasmon resonance is called the SPR angle. The SPR biosensor provides a sensitive, real-time, non-label detection technique for monitoring the interaction of molecules. The sensor detects the change of the SPR angle, and SPR is also related to the refractive index of the metal surface. When an analyte is bond on the surface of the chip, it leads to the change of the refractive index of the chip surface, which leads to the change of the SPR angle. […] In the interaction analysis, the change of SPR angle is recorded on the sensor map in real time. […]

[5] = test system: Lewis lung cancer; experiment: Mouse Lewis lung cancer hydrothorax model; format: in vivo, C57BL/6 mice; settings: 10 mg
Protocol: The method in Lewis lung cancer hydrothorax model was as follows: The subcutaneous xenograft tumor of Lewis lung cancer was homogenized and washed for two times with sterile physiological saline, and the cell concentration was adjusted to 2.5×10^5/ml by physiological saline. 0.2 ml of cells were injected into the thoracic cavity of C57BL/6 mice. After inoculation, the animals were randomly divided into two groups in next day. Each group had 6-7 mice. After weighing, the animals were dosed once each day. Animals were sacrificed when the weight of the animals in the control group suddenly dropped. The liquid in thoracic cavity was extracted with syringe and the volume of fluid was recorded.

[6] = test system: high metastatic melanoma B16F10; experiment: Subcutaneous xenograft model of high metastatic melanoma B16F10; format: in vivo, C57BL/6 or Bablc mice; settings: for TGI % (tumor growth inhibition rate): tumor weight
Protocol: as §2, §1

[7] = test system: mouse breast cancer EMT6; experiment: Subcutaneous xenograft model of mouse breast cancer EMT6; format: in vivo, C57BL/6 or Bablc mice
Protocol: as §2

T1 sequence (Q9NZQ7 19-290): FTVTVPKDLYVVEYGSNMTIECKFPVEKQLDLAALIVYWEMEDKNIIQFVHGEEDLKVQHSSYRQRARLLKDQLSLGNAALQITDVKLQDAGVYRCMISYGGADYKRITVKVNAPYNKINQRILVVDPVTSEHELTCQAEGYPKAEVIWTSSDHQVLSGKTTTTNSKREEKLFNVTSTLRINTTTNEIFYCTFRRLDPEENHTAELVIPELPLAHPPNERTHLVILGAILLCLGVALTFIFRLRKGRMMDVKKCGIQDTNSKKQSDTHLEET

`O=C(O)[C@H](CO)NCc1cc(Cl)c(OCc2cccc(-c3ccccc3)c2Br)cc1OCc1cccnc1` [Example 4, (S)—N-(4-(2-bromo-3-phenylbenzyloxy)-5-chloro-2-(pyridin-3-yl-methyleneoxy)benzyl) serine] was tested. Which pIC50 [1] did it give?
Its pIC50 is 9.74.

And the “relief of the inhibition of PD-L1 to expression level of IFNγ” value ([1]; at 10 nM)?
Its value is “partially relieved”.

What about the “percentage of lymphocyte in mouse blood” value ([2]; result in words) of the same compound?
The value was “increase”.

And the “TGI % (tumor growth inhibition rate)” value ([3]; 2.5 mg/kg)?
Its value is 102.3%.

And the “Tumor weight(g) Mean ± SD” value ([3]; 2.5 mg/kg)?
The value was 3.25 ± 0.61 g.

And the “Body weight (g) Mean ± SD Begin” value ([3]; 2.5 mg/kg, begin)?
Its value is 18.0 ± 0.4 g.

And the “Body weight (g) Mean ± SD End” value ([3]; 2.5 mg/kg)?
Its value is 21.9 ± 0.7 g.

And the “TGI % (tumor growth inhibition rate)” value ([3]; 5 mg/kg)?
The value was 12.7%.

What about the “Tumor weight(g) Mean ± SD” value ([3]; 5 mg/kg) of the same compound?
The value was 2.78 ± 0.44 g.

And the “Body weight (g) Mean ± SD End” value ([3]; 5 mg/kg)?
The value was 22.8 ± 0.6 g.

What about the “TGI % (tumor growth inhibition rate)” value ([3]; 10 mg/kg) of the same compound?
The value was 32.7%.

What about the “Tumor weight(g) Mean ± SD” value ([3]; 10 mg/kg) of the same compound?
The value was 2.14 ± 0.78 g.

And the “Body weight (g) Mean ± SD End” value ([3]; 10 mg/kg)?
The value was 21.5 ± 0.8 g.

And the “TGI % (tumor growth inhibition rate)” value ([3]; 20 mg/kg)?
The value was 41.2%.

And the “Tumor weight(g) Mean ± SD” value ([3]; 20 mg/kg)?
The value was 1.87 ± 0.90 g.

What about the “Body weight (g) Mean ± SD End” value ([3]; 20 mg/kg) of the same compound?
The value was 20.9 ± 1.1 g.

And the “kd” value ([4]; PBS-P+, pH7.4, 0.01% DMSO, NTA chip)?
The value was 2.815e-05 s⁻¹.

What about the pKd ([4]; unit inferred, read-out: affinity kD value) of the same compound?
Its pKd is 10.69.

What does the source list for `O=C([O-])[C@H](CO)NCc1cc(Cl)c(OCc2cccc(-c3ccccc3)c2Br)cc1OCc1cccnc1.[Na+]` [Example 4 sodium salt, (S)-Sodium N-(4-(2-bromo-3-phenylbenzyloxy)-5-chloro-2-(pyridin-3-yl-methyleneoxy)benzyl) serinate]?
hydrothorax incidence rate [5]: 33%; hydrothorax volume (mean) [5]: 0.2 mL; hydrothorax incidence rate ([5]; listed as sodium salt of Example 4 compound): 33%; Tumorweight(g) X ± SD ([6]; 15 mg/kg): 0.93 ± 0.89 g; Body weight (g) Mean ± SD Begin ([6]; 15 mg/kg): 20.3 ± 0.4 g; Body weight (g) Mean ± SD End ([6]; 15 mg/kg): 21.8 ± 2.1 g; TGI % (tumor growth inhibition rate) ([6]; 15 mg/kg): 64.11%; Tumorweight(g) X ± SD ([6]; 45 mg/kg): 2.57 ± 0.85 g; Body weight (g) Mean ± SD Begin ([6]; 45 mg/kg): 20.4 ± 0.9 g; Body weight (g) Mean ± SD End ([6]; 45 mg/kg): 23.8 ± 1.4 g; TGI % (tumor growth inhibition rate) ([6]; 45 mg/kg): 0.23%; proportion of lymphocytes in the spleen samples ([6]; result in words): increase; proportion of tumor-infiltrating lymphocytes ([6]; result in words): increase; CD4+ (%) T lymphocytes in spleen ([6]; spleen, 15 mg): 27.0 ± 1.8%; CD8+ (%) T lymphocytes in spleen ([6]; spleen, 15 mg): 13.6 ± 1.8%; CD3+ (%) tumor-infiltrating T lymphocytes ([6]; tumor, 15 mg): 13.3 ± 6.9%; CD4+ (%) tumor-infiltrating T lymphocytes ([6]; tumor, 15 mg): 7.2 ± 3.4%; CD8+ (%) tumor-infiltrating T lymphocytes ([6]; tumor, 15 mg): 3.9 ± 1.4%; number of lung metastases ([2]; 15 mg/kg dose, result in words): significantly inhibit; Body weight (g) Mean ± SD Begin ([2]; 15 mg/kg): 20.1 ± 0.9 g; Body weight (g) Mean ± SD End ([2]; 15 mg/kg): 21.5 ± 1.2 g; Tumor number X ± SD ([2]; 15 mg/kg): 12 ± 3; TGI % (tumor growth inhibition rate) ([2]; 15 mg/kg): 42.3%; Body weight (g) Mean ± SD Begin ([2]; 45 mg/kg): 20.3 ± 0.6 g; Body weight (g) Mean ± SD End ([2]; 45 mg/kg): 21.4 ± 0.3 g; Tumor number X ± SD ([2]; 45 mg/kg): 19 ± 15; TGI % (tumor growth inhibition rate) ([2]; 45 mg/kg): 9.5%; CD3+ percentage of T lymphocyte in mouse blood ([2]; 15 mg): 29.0 ± 3.7%; CD4+ percentage of T lymphocyte in mouse blood ([2]; 15 mg): 17.8 ± 2.4%; CD8+ percentage of T lymphocyte in mouse blood ([2]; 15 mg): 9.6 ± 0.8%; CD3+ percentage of T lymphocyte in mouse blood ([2]; 45 mg): 23.2 ± 3.6%; CD4+ percentage of T lymphocyte in mouse blood ([2]; 45 mg): 14.7 ± 2.5%; CD8+ percentage of T lymphocyte in mouse blood ([2]; 45 mg): 7.6 ± 1.3%; antitumor effect in combination with Cyclophosphamide (CTX) ([3]; result in words): synergistic antitumor effect; inhibition effect on subcutaneous xenograft of MC38 ([3]; result in words): significant inhibition effect; TGI % (tumor growth inhibition rate) ([7]; 1.5 mg/kg): 13.1%; Tumorweight(g) X ± SD ([7]; 1.5 mg/kg): 1.5 ± 0.61 g; Body weight (g) Mean ± SD Begin ([7]; 1.5 mg/kg): 18.4 ± 0.9 g; Body weight (g) Mean ± SD End ([7]; 1.5 mg/kg): 22.0 ± 1.6 g; TGI % (tumor growth inhibition rate) ([7]; 5 mg/kg): 20.2%; Tumorweight(g) X ± SD ([7]; 5 mg/kg): 1.37 ± 0.23 g; Body weight (g) Mean ± SD Begin ([7]; 5 mg/kg): 18.4 ± 0.4 g; Body weight (g) Mean ± SD End ([7]; 5 mg/kg): 21.0 ± 1.6 g; TGI % (tumor growth inhibition rate) ([7]; 10 mg/kg): 22.3%; Tumorweight(g) X ± SD ([7]; 10 mg/kg): 1.34 ± 0.34 g; Body weight (g) Mean ± SD Begin ([7]; 10 mg/kg): 18.4 ± 0.6 g; Body weight (g) Mean ± SD End ([7]; 10 mg/kg): 21.6 ± 1.3 g; TGI % (tumor growth inhibition rate) ([7]; 15 mg/kg): 14.7%; Tumorweight(g) X ± SD ([7]; 15 mg/kg): 1.47 ± 0.65 g; Body weight (g) Mean ± SD Begin ([7]; 15 mg/kg): 18.5 ± 0.4 g; Body weight (g) Mean ± SD End ([7]; 15 mg/kg): 22.0 ± 1.1 g; inhibition effect on mouse breast cancer EMT6 ([7]; dose of 10 mg): 20%; inhibition effect on mouse breast cancer EMT6 ([7]; dose of 15 mg): 22%
